Test results from article PMC11823630, “In vitro potentiation of tetracyclines in Pseudomonas aeruginosa by RW01, a new cyclic peptide” (Antimicrobial Agents and Chemotherapy, 2024).
In brackets after ≈: the same amount, converted by molar mass.

How the values were obtained:
[1] = tested on: PAO1 mutant MIN4_RW01_2, pmrB(F124S); experiment: microbe, parasite or virus in culture; type: cell-based; conditions: Pseudomonas aeruginosa, PAO1, read-out: MIC, Sensititre
Procedure: (§1) Selection of resistant mutants was performed for minocycline with and without RW01 in three independent replicates for wild-type P. aeruginosa reference strain PAO1. Tubes containing Mueller-Hinton broth (MHB) were inoculated and incubated for 24 h at 37°C. Afterward, 1/100 dilution of each tube was incubated at 37°C in MHB to late-exponential growth phase, measured by spectrophotometry at OD600. […] A control plate without antibiotic was included as inoculum control. After overnight incubation, colony counting of each treatment was performed to analyze the generation of resistant population. The mutant prevention concentration (MPC) was defined as the lowest concentration of antibiotic yielding no growth of resistant mutants. Selected mutants were checked for susceptibility profiles by using a Sensititre custom plate (Thermo Fisher Scientific, Massachusetts, USA) for Gram-negative bacteria, following the manufacturer’s instructions.

[2] = tested on: PAO1 mutant MIN1_RW01_4, pmrB(F124L); experiment: microbe, parasite or virus in culture; type: cell-based; conditions: Pseudomonas aeruginosa, PAO1, read-out: MIC, Sensititre
Procedure: as §1

[3] = tested on: PAO1 mutant MIN16_3, nfxB(nt79∆14), pilB(N349K); experiment: MIC, Sensititre custom plate; type: cell-based; conditions: Pseudomonas aeruginosa, PAO1, read-out: MIC, Sensititre
Procedure: as §1

[4] = tested on: PAO1 mutant MIN16_1, nalD(T43P); experiment: MIC, Sensititre custom plate; type: cell-based; conditions: Pseudomonas aeruginosa, PAO1, read-out: MIC, Sensititre
Procedure: as §1

[5] = tested on: PAO1 mutant MIN8_2, pilZ(nt18InsT); experiment: MIC, Sensititre custom plate; type: cell-based; conditions: Pseudomonas aeruginosa, PAO1, read-out: MIC, Sensititre
Procedure: as §1

[6] = tested on: PAO1 mutant MIN4_RW01_1, pmrB(R429H); experiment: MIC, Sensititre custom plate; type: cell-based; conditions: Pseudomonas aeruginosa, PAO1, read-out: MIC, Sensititre
Procedure: as §1

[7] = tested on: PAO1 mutant MIN16_4, nalC(T50P), pilM(Q62X); experiment: MIC, Sensititre custom plate; type: cell-based; conditions: Pseudomonas aeruginosa, PAO1, read-out: MIC, Sensititre
Procedure: as §1

[8] = tested on: PAO1 mutant MIN8_1, nalD(R3C), pilM(Q62X); experiment: MIC, Sensititre custom plate; type: cell-based; conditions: Pseudomonas aeruginosa, PAO1, read-out: MIC, Sensititre
Procedure: as §1

[9] = tested on: PAO1 mutant MIN4_RW01_3, pmrB(M292T); experiment: MIC, Sensititre custom plate; type: cell-based; conditions: Pseudomonas aeruginosa, PAO1, read-out: MIC, Sensititre
Procedure: as §1

[10] = tested on: PAO1 mutant MIN4_RW01_4, pmrB(Y98N); experiment: MIC, Sensititre custom plate; type: cell-based; conditions: Pseudomonas aeruginosa, PAO1, read-out: MIC, Sensititre
Procedure: as §1

[11] = tested on: PAO1 mutant MIN32_1, mexR(R63H), pilB(N349K), PA0646(V316G); experiment: MIC, Sensititre custom plate; type: cell-based; conditions: Pseudomonas aeruginosa, PAO1, read-out: MIC, Sensititre
Procedure: as §1

[12] = tested on: PAO1 mutant MIN8_3, pilZ(nt18InsT); experiment: MIC, Sensititre custom plate; type: cell-based; conditions: Pseudomonas aeruginosa, PAO1, read-out: MIC, Sensititre
Procedure: as §1

P. aeruginosa PAO1, WT = experiment: MIC, Sensititre custom plate; type: cell-based; conditions: Pseudomonas aeruginosa, PAO1, read-out: MIC, Sensititre
Procedure: as §1

[13] = tested on: PAO1 mutant MIN1_RW01_1, pmrB(Y98N); experiment: MIC, Sensititre custom plate; type: cell-based; conditions: Pseudomonas aeruginosa, PAO1, read-out: MIC, Sensititre
Procedure: as §1

[14] = tested on: PAO1 mutant MIN2_RW01_3, parS(V152A); experiment: MIC, Sensititre custom plate; type: cell-based; conditions: Pseudomonas aeruginosa, PAO1, read-out: MIC, Sensititre
Procedure: as §1

[15] = tested on: PAO1 mutant MIN1_RW01_3, pmrB(V215L); experiment: MIC, Sensititre custom plate; type: cell-based; conditions: Pseudomonas aeruginosa, PAO1, read-out: MIC, Sensititre
Procedure: as §1

[16] = tested on: PAO1 mutant MIN2_RW01_2, pmrB(M292T); experiment: MIC, Sensititre custom plate; type: cell-based; conditions: Pseudomonas aeruginosa, PAO1, read-out: MIC, Sensititre
Procedure: as §1

[17] = tested on: PAO1 mutant MIN8_4, pilZ(nt18InsT); experiment: MIC, Sensititre custom plate; type: cell-based; conditions: Pseudomonas aeruginosa, PAO1, read-out: MIC, Sensititre
Procedure: as §1

[18] = tested on: PAO1 mutant MIN1_RW01_2, mexR(G58E), pilB(G326D), hutC(Y181X); experiment: MIC, Sensititre custom plate; type: cell-based; conditions: Pseudomonas aeruginosa, PAO1, read-out: MIC, Sensititre
Procedure: as §1

[19] = tested on: PAO1 mutant MIN16_2, nalC(aa9∆4), pilQ(nt46∆1); experiment: MIC, Sensititre custom plate; type: cell-based; conditions: Pseudomonas aeruginosa, PAO1, read-out: MIC, Sensititre
Procedure: as §1

[20] = tested on: PAO1 mutant MIN2_RW01_4, pmrB(M292T); experiment: MIC, Sensititre custom plate; type: cell-based; conditions: Pseudomonas aeruginosa, PAO1, read-out: MIC, Sensititre
Procedure: as §1

[21] = tested on: PAO1 mutant MIN2_RW01_1, pmrB(V215L); experiment: MIC, Sensititre custom plate; type: cell-based; conditions: Pseudomonas aeruginosa, PAO1, read-out: MIC, Sensititre
Procedure: as §1

P. aeruginosa 125A = experiment: MIC, CLSI broth microdilution in BD Phoenix AST Broth; type: cell-based, Pseudomonas aeruginosa; conditions: Pseudomonas aeruginosa; strain 125A; agent alone; 37°C, 18–22 h; three biological replicates
Procedure: (§2) MIC for RW01 was also tested.
(§3) FIC of RW01 (FICRW01)=MIC of RW01 in combination/MIC of RW01 alone,FIC of antibiotic (FICATB)=MIC of ATB in combination/MIC of ATB alone,FICI=FICRW01 +FICATB.
(§4) FICI was interpreted as follows: synergistic effect if FICI is ≤0.5; additive effect if 0.5 < FICI ≤ 1.0; indifferent effect if 1.0 < FICI ≤ 2.0; and finally, antagonistic effect if FICI is >2.0. The average FICI considering the antibiotic MIC (no growth in any of the replicates) at different concentrations of RW01 was calculated ([28]).

P. aeruginosa PAOΔoprM = experiment: as above; type: cell-based, Pseudomonas aeruginosa; conditions: Pseudomonas aeruginosa
Procedure: as §2, §3, §4

P. aeruginosa 41B = experiment: as above; type: cell-based, Pseudomonas aeruginosa; conditions: Pseudomonas aeruginosa; strain 41B; agent alone; 37°C, 18–22 h; three biological replicates
Procedure: as §2, §3, §4

P. aeruginosa PAOUW∆oprF = experiment: as above; type: cell-based, Pseudomonas aeruginosa; conditions: Pseudomonas aeruginosa, strain PAOUWΔoprF; agent alone; 37°C, 18–22 h; three biological replicates
Procedure: as §2, §3, §4

P. aeruginosa PAOΔmexZ = experiment: as above; type: cell-based, Pseudomonas aeruginosa; conditions: Pseudomonas aeruginosa, strain PAOΔmexZ; agent alone; 37°C, 18–22 h; three biological replicates
Procedure: as §2, §3, §4

P. aeruginosa 41A = experiment: as above; type: cell-based, Pseudomonas aeruginosa; conditions: Pseudomonas aeruginosa; strain 41A; agent alone; 37°C, 18–22 h; three biological replicates
Procedure: as §2, §3, §4

P. aeruginosa 125B = experiment: as above; type: cell-based, Pseudomonas aeruginosa; conditions: Pseudomonas aeruginosa; strain 125B; agent alone; 37°C, 18–22 h; three biological replicates
Procedure: as §2, §3, §4

P. aeruginosa PAO1 = experiment: as above; type: cell-based, Pseudomonas aeruginosa; conditions: Pseudomonas aeruginosa, PAO1, strain PAO1; agent alone; 37°C, 18–22 h; three biological replicates; read-out: MIC
Procedure: as §2, §3, §4

P. aeruginosa PAOΔmexR = experiment: as above; type: cell-based, Pseudomonas aeruginosa
Procedure: as §2, §3, §4

P. aeruginosa PAOUW = experiment: as above; type: cell-based, Pseudomonas aeruginosa; conditions: Pseudomonas aeruginosa, strain PAOUW; agent alone; 37°C, 18–22 h; three biological replicates; read-out: MIC
Procedure: as §2, §3, §4

SMILES | MIC [1] | MIC [3] | MIC [4] | MIC [5] | MIC [6] | MIC [7] | MIC [8] | MIC [9] | MIC [10] | MIC [11] | MIC [12] | MIC (P. aeruginosa PAO1, WT) | MIC [13] | MIC [14] | MIC [15] | MIC [16] | MIC [17] | MIC [18] | MIC [19] | MIC [20] | further results
NCC[C@H](O)C(=O)N[C@@H]1C[C@H](N)[C@@H](O[C@H]2O[C@H](CN)[C@@H](O)[C@H](O)[C@H]2O)[C@H](O)[C@H]1O[C@H]1O[C@H](CO)[C@@H](O)[C@H](N)[C@H]1O [AMI, amikacin] | 4 µg/mL (≈ 6.83 µM) | ≤ 2 µg/mL | 4 µg/mL (≈ 6.83 µM) | ≤ 2 µg/mL | 2 to 4 µg/mL (≈ 3.42 to 6.83 µM) | ≤ 2 µg/mL | ≤ 2 µg/mL | 4 µg/mL (≈ 6.83 µM) | 4 µg/mL (≈ 6.83 µM) | ≤ 2 µg/mL | ≤ 2 µg/mL | ≤ 2 µg/mL | 4 µg/mL (≈ 6.83 µM) | 8 µg/mL (≈ 13.7 µM) | 4 µg/mL (≈ 6.83 µM) | 4 µg/mL (≈ 6.83 µM) | ≤ 2 µg/mL | ≤ 2 µg/mL | ≤ 2 µg/mL | 4 µg/mL (≈ 6.83 µM) | MIC [2]: ≤ 2 µg/mL; MIC [21]: 4 µg/mL (≈ 6.83 µM)
C[C@H]1[C@H](NC(=O)/C(=N\OC(C)(C)C(=O)O)c2csc(N)n2)C(=O)N1S(=O)(=O)O [Aztreonam, aztreonam] | ≤ 2 µg/mL | 2 to 4 µg/mL (≈ 4.59 to 9.19 µM) | 16 µg/mL (≈ 36.7 µM) | – | 16 µg/mL (≈ 36.7 µM) | 16 µg/mL (≈ 36.7 µM) | – | ≤ 2 µg/mL | ≤ 2 µg/mL | 16 µg/mL (≈ 36.7 µM) | 16 µg/mL (≈ 36.7 µM) | 2 to 4 µg/mL (≈ 4.59 to 9.19 µM) | ≤ 2 µg/mL | 4 µg/mL (≈ 9.19 µM) | ≤ 2 µg/mL | 4 µg/mL (≈ 9.19 µM) | 16 µg/mL (≈ 36.7 µM) | 16 µg/mL (≈ 36.7 µM) | 8 to 16 µg/mL (≈ 18.4 to 36.7 µM) | – | MIC (P. aeruginosa 125A): 8 µg/mL; MIC (P. aeruginosa PAOΔoprM): 0.5 µg/mL; MIC (P. aeruginosa 41B): 8 µg/mL; MIC (P. aeruginosa PAOUW∆oprF): 8 µg/mL; MIC (P. aeruginosa PAOΔmexZ): 8 µg/mL; MIC (P. aeruginosa 41A): 8 µg/mL; MIC (P. aeruginosa 125B): 8 µg/mL; MIC (P. aeruginosa PAO1): 8 µg/mL; MIC (P. aeruginosa PAOΔmexR; Pseudomonas aeruginosa): 4 µg/mL; MIC (P. aeruginosa PAOUW): 2 µg/mL; MIC [21]: 4 to 8 µg/mL (≈ 9.19 to 18.4 µM)
O=C(O)c1cn(C2CC2)c2cc(N3CCNCC3)c(F)cc2c1=O [CIP, ciprofloxacin] | – | 4 µg/mL (≈ 12.1 µM) | – | – | 0.5 µg/mL (≈ 1.51 µM) | 0.5 µg/mL (≈ 1.51 µM) | – | – | – | 0.5 µg/mL (≈ 1.51 µM) | 0.5 µg/mL (≈ 1.51 µM) | – | – | 0.5 µg/mL (≈ 1.51 µM) | – | – | 0.5 µg/mL (≈ 1.51 µM) | 0.5 µg/mL (≈ 1.51 µM) | – | 0.5 to 1 µg/mL (≈ 1.51 to 3.02 µM) | –
CO/N=C(\C(=O)N[C@@H]1C(=O)N2C(C(=O)[O-])=C(C[N+]3(C)CCCC3)CS[C@H]12)c1csc(N)n1 [Cefepime, cefepime] | ≤ 1 µg/mL | 4 µg/mL (≈ 8.32 µM) | 4 µg/mL (≈ 8.32 µM) | 4 µg/mL (≈ 8.32 µM) | 4 to 8 µg/mL (≈ 8.32 to 16.6 µM) | 4 µg/mL (≈ 8.32 µM) | 4 µg/mL (≈ 8.32 µM) | ≤ 1 µg/mL | ≤ 1 µg/mL | 4 µg/mL (≈ 8.32 µM) | 4 µg/mL (≈ 8.32 µM) | ≤ 1 µg/mL | ≤ 1 µg/mL | 4 µg/mL (≈ 8.32 µM) | ≤ 1 µg/mL | 4 µg/mL (≈ 8.32 µM) | 4 µg/mL (≈ 8.32 µM) | 4 µg/mL (≈ 8.32 µM) | 4 µg/mL (≈ 8.32 µM) | 4 µg/mL (≈ 8.32 µM) | MIC (P. aeruginosa 125A): 4 µg/mL; MIC (P. aeruginosa PAOΔoprM): 1 µg/mL; MIC (P. aeruginosa 41B): 8 µg/mL; MIC (P. aeruginosa PAOUW∆oprF): 0.5 µg/mL; MIC (P. aeruginosa PAOΔmexZ): 2 µg/mL; MIC (P. aeruginosa 41A): 8 µg/mL; MIC (P. aeruginosa 125B): 4 µg/mL; MIC (P. aeruginosa PAO1): 2 µg/mL; Antibiotic MIC + RW01 100 mg/L (P. aeruginosa PAOΔmexR; strain PAOΔmexR, MIC of the antibiotic with fixed 100 mg/L RW01): 0.5 µg/mL; Potentiation (fold) (P. aeruginosa PAOΔmexR; strain PAOΔmexR, antibiotic MIC alone vs with RW01 100 mg/L): ≥ 8 fold; MIC (P. aeruginosa PAOUW): 4 µg/mL
